Results reported in PubChem BioAssay (NCI).
“And” between values parts separate entries of the source, which are not always exact repeats. Equal values may be shown once.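 Method: 48-hour compound exposure of cells in 96-well plates, five concentrations, linear interpolation of endpoints. GI50 = concentration required for 50% inhibition of growth. TGI: total growth inhibition.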

Tests used:
Assay in all cases: inhibition of tumour cell growth, NCI panel, 48 h
[1] = test system: SK-OV-3 ovarian
[2] = test system: SK-MEL-28 melanoma
[3] = test system: MDA-MB-435
[4] = test system: MDA-MB-231 breast
[5] = test system: ACHN renal
[6] = test system: DLD-1 colon
[7] = test system: KM20L2 colon
[8] = test system: OVCAR-3 ovarian
[9] = test system: NCI/ADR-RES ovarian
[10] = test system: MALME-3M melanoma

SMILES | GI50 [1] [µM] | TGI [1] | GI50 [2] [µM] | TGI [2] | GI50 [3] [µM] | TGI [3] | GI50 [4] [µM] | TGI [4] | GI50 [5] [µM] | TGI [5] | TGI [6] [µM] | TGI [7] [µM] | GI50 [8] [µM] | TGI [8] | GI50 [9] [µM] | TGI [9] | GI50 [10] [µM] | TGI [10]
CCC1(O)C(=O)OCc2c1cc1n(c2=O)Cc2cc3ccc(C=O)cc3nc2-1 (stereo not drawn) | 7.45 | 50 µM and 52.1 µM | 11.2 | 50 µM and > 100 µM | 5.9 | 31.2 µM and 35.7 µM | 19.4 | 50 µM and 68.2 µM | 1.73 | 38.9 µM and 5.51 µM | > 100 | > 50.3 | 5.05 | 30.6 µM and 23.4 µM | 1.33 | 6.73 µM and 12.6 µM | 13.2 | 50 µM and 41.2 µM
CN/N=C(/CCN1CCCC1)CC(c1ccccc1)c1c(O)c2ccccc2oc1=O (stereo not drawn) |  | > 100 µM |  | > 100 µM |  | > 100 µM |  | > 100 µM |  | > 100 µM | > 100 | > 100 |  | > 100 µM |  | > 100 µM |  | > 100 µM
COc1ccc(C(C)c2cc3c(cc2OC)OCO3)cc1 (stereo not drawn) |  | 27 µM |  | > 100 µM |  | 0.214 µM |  | 4.6 µM |  | > 100 µM | > 100 | 0.533 |  | 0.598 µM |  | 28.2 µM |  | 52.2 µM
